Data: article PMC9870305, “Efficacy of ultra-short, response-guided sofosbuvir and daclatasvir therapy for hepatitis C in a single-arm mechanistic pilot study” (eLife, 2023)
Where two headings read alike, the source gives them in different places. One block for each compound: values may come before it.

Legend:
[1] = Plasma pharmacokinetics, naïve pooled non-compartmental analysis (days 0 and 28); type: in vivo, human; design: AUClast / AUC(0-t) / AUCINF / AUC(0-inf): concentration or dose not given beside the values; conditions: for AUCINF / AUC(0-inf): extrapolated to infinity; for AUClast / AUC(0-t): to 8 hours for SOF, 24 hours for GS-331007 and DCV; for drug accumulation: between day 0 and 28; for half-life: read-out: t1/2, terminal elimination half-life (converted); for AUC(0-inf): po
Description: (§1) In addition, intensive drug level sampling was conducted in a subset of 40 participants, who were sequentially invited to join an ancillary PK study. In this subgroup, five samples were collected in each participant after the first dose of SOF/DCV and at day 28, according to one of two randomly assigned sampling schedules (A and B). In sampling schedule A, drug levels were measured at 0.5-, 2-, 4-, 6- and 24-hr post-dose; in sampling schedule B, drug levels were measured at 1-, 3-, 5-, 8- and 24-hr post-dose.
(§2) Drug quantification was performed using liquid chromatography-tandem mass spectrometer at Mahidol Oxford Tropical Medicine Research Unit, Bangkok. Two separate analytical assays were developed and validated to quantify SOF plus its metabolite GS-331007, and DCV, respectively. Full methodological details of the PK/PD analysis are provided in Appendix 1.
Intensive drug levels of SOF, its metabolite GS-331007, and DCV from the subset of 40 patients at days 0 and 28, together with any EOT samples at day 28, were analysed using non-compartmental analysis in PKanalix version 2020R1 ([Lixoft, 2022]). Two separate analyses were performed to characterise the pharmacokinetic properties of the study drugs.
In the first, naïve pooled analyses were performed separately on data from days 0 and 28 (not including EOT samples) to derive median pharmacokinetic parameters at each day. In these analyses, the median concentration at each protocol time was calculated. Individual concentration measurements below the LLOQ were set to LLOQ/2 when calculating the median values. It was assumed that the participants had no drug concentrations at time 0.
Sofosbuvir and GS-331007 were extracted from 100 µL of plasma using phospholipid removal in the 96-well plate format (Phree, 8E-S133-TGB, Phenomenex), followed by separation on a Gemini, 50 mm × 2.0 mm I.D. 5 µm, column (00B-4435-B0, Phenomenex). Quantification was performed using selected reaction monitoring for the transitions m/z 530.2–>243.2 (sofosbuvir), 536.2–>243.1 (isotope-labelled internal standard for sofosbuvir), 261.3–>113.1 (GS-331007), and 265.3–>113.1 (isotope-labelled internal standard for GS-331007).
The lower limit of quantification (LLOQ) was set to 1.95 ng/mL for sofosbuvir and 20.5 ng/mL for GS-331007. A total of 9 quality control samples (3×low, 3×mid and 3×high concentration) were analysed for each analyte within each batch of clinical samples (96-well plate), resulting in an accuracy of 2.81–2.93% RSE for sofosbuvir and 2.19–3.50% RSE for GS-331007.
DCV was extracted from 100 µL of plasma using supported liquid extraction in the 96-well plate format (ISOLUTE SLE +96 well plate, 820–0200 P01, Biotage), followed by separation on a Gemini, 50 mm × 2.0 mm I.D. 5 µm, column (00B-4435-B0, Phenomenex). Quantification was performed using selected reaction monitoring for the transitions m/z 739.5–>339.3 (DCV) and 747.5–>339.3 (isotope-labelled internal standard for DCV). The LLOQ was set to 1.64 ng/mL for DCV. A total of 9 quality control samples (3×low, 3×mid and 3×high concentration) were analysed within each batch of clinical samples (96-well plate), resulting in an accuracy of 2.46–2.62% RSE for DCV.
Maximum concentration (Cmax) and time to reach maximum concentration (tmax) were derived directly from the observed drug concentrations. The software’s automatic slope calculator was used to derive the elimination rate (λ) (adjusted R2 value with uniform weighting) and terminal elimination half-life (t1/2). The drug exposure measured as area under the concentration-time curve (AUC) was calculated for each drug using the trapezoidal method. Linear interpolation was used for acceding concentrations and log-linear interpolation for descending concentrations. For the individual analysis, the linear method was used for all measurements due to accumulation between the day 0 and day 28 measurements. […]

[2] = Plasma drug exposure, individual non-compartmental analysis (days 0 and 28 pooled); type: in vivo, human; design: AUC(0-t) / AUClast: concentration or dose not given beside the values; conditions: median (5th-95th percentile); for AUC(0-t): human
Description: as §1, §2
In the second analysis, data from days 0 and 28 were pooled for each individual. […] The mean value of drug concentrations was used if patients had two or more samples taken at the same time point. These derived individual drug exposures were used to evaluate the relationship between drug exposure and therapeutic outcome. It was assumed that the participants had no drug concentrations at time 0. In this analysis, the first measurement below LLOQ in a series of LLOQ samples was imputed as LLOQ/2 and the later measurements were ignored. In both approaches, SOF samples taken at ≥24 hr post-dose were excluded. […] In addition, outcome variables and the relationship between outcome variables and drug exposure were evaluated. Additional detail of the PK/PD analysis is provided in Appendix 1.
Maximum concentration (Cmax) and time to reach maximum concentration (tmax) were derived directly from the observed drug concentrations. The software’s automatic slope calculator was used to derive the elimination rate (λ) (adjusted R2 value with uniform weighting) and terminal elimination half-life (t1/2). The drug exposure measured as area under the concentration-time curve (AUC) was calculated for each drug using the trapezoidal method. Linear interpolation was used for acceding concentrations and log-linear interpolation for descending concentrations. For the individual analysis, the linear method was used for all measurements due to accumulation between the day 0 and day 28 measurements. Both the AUC to the last time point (AUClast, 8 hours for SOF and 24 hours for GS-331007 and DCV) and AUC to infinity (AUCinf) were calculated.
Two different sampling schedules were used to collect pharmacokinetic samples on day 0 and day 28, resulting in an overlapping sampling profile overall. Therefore, data collected within an individual on a specific day was not dense enough to justify a non-compartment analysis. […] Two separate pharmacokinetic analyses were carried out. A naïve-pooled analysis was performed separately conducted on day 0 and 28 data. […] Therefore, a second analysis was performed in which the data from day 0 and 28 were pooled for each individual. […] However, the individual analysis should still generate median exposure values for each patient, which can be linked with treatment outcome. Another drawback is that no pre-dose samples were collected.

[3] = cited from earlier work; for dose proportionality of AUC: dose range of 200–1200 mg, ref Smolders et al., 2019
[4] = individual analysis, all patients (n=37)

t1/2, terminal elimination half-life ([1]; Day 0): 9.20 h
tmax ([1]; Day 0): 3.00 h
Cmax ([1]; Day 0, plasma, oral SOF 400 mg + DCV 60 mg): 988 ng/mL
AUCINF ([1]; Day 0): 12,700 h×ng/mL
AUClast ([1]; Day 0): 10,500 h×ng/mL
t1/2, terminal elimination half-life ([1]; Day 28): 12.4 h
tmax ([1]; Day 28): 4.00 h
Cmax ([1]; Day 28, plasma): 1,230 ng/mL
AUCINF ([1]; Day 28): 20,400 h×ng/mL
AUClast ([1]; Day 28): 14,600 h×ng/mL
drug accumulation [1]: Drug accumulation was observed
Median AUClast ([2]; 4-week cures (n=15)): 11,700 (8420–14,100) h×ng/ml
Median AUClast ([2]; 4-week failures (n=8)): 15,100 (9240–19,700) h×ng/ml
Median AUClast ([2]; 8-week cures (n=14)): 14,000 (10,200–17,400) h×ng/ml
AUClast [2, 4]: 3,430 (2,200-4,720) h×ng/mL
Compound: C[C@@]1(F)[C@H](O)[C@@H](CO)O[C@H]1n1ccc(=O)[nH]c1=O [GS-331007]
dose proportionality of AUC [3]: near dose proportional

drug accumulation [1]: Drug accumulation was observed
Cmax ([1]; human, oral, Day 28, plasma, read-out: Cmax): 1110 ng/mL
AUC(0-t) ([1]; human, plasma, oral, Day 0): 11400 ng·h/mL
half-life ([1]; human, plasma, oral, Day 28): 491 min
AUC(0-t) ([1]; human, plasma, oral, Day 28): 12400 ng·h/mL
half-life ([1]; human, plasma, oral, Day 0): 439 min
tmax ([1]; human, plasma, oral, Day 0, read-out: tmax): 3 h
AUC(0-inf) ([1]; human, plasma, Day 0): 12800 ng·h/mL
AUC(0-inf) ([1]; human, plasma, Day 28): 14400 ng·h/mL
Cmax ([1]; human, Day 0, plasma, oral SOF 400 mg + DCV 60 mg, read-out: Cmax): 1170 ng/mL
AUC(0-t) ([2]; plasma, oral, 4-week cures (n=15), read-out: Median AUClast): 13000 ng·h/mL
AUC(0-t) ([2]; plasma, oral, 4-week failures (n=8), read-out: Median AUClast): 13200 ng·h/mL
AUC(0-t) ([2]; plasma, oral, 8-week cures (n=14), read-out: Median AUClast): 14200 ng·h/mL
AUC(0-t) ([2]; plasma, oral, individual analysis, all patients (n=37), read-out: AUClast): 9770 ng·h/mL
Compound: COC(=O)N[C@H](C(=O)N1CCC[C@H]1c1nc(-c2ccc(-c3ccc(-c4c[nH]c([C@@H]5CCCN5C(=O)[C@@H](NC(=O)OC)C(C)C)n4)cc3)cc2)c[nH]1)C(C)C [Daclatasvir, daclatasvir]

Compound: CC(C)OC(=O)[C@H](C)N[P@](=O)(OC[C@H]1O[C@@H](n2ccc(=O)[nH]c2=O)[C@](C)(F)[C@@H]1O)Oc1ccccc1 [Sofosbuvir, sofosbuvir]
tmax ([1]; Day 0): 1.00 h
half-life ([1]; human, in vivo, Day 0): 40.2 min
AUC(0-t) ([1]; human, in vivo, Day 0): 1550 ng·h/mL
half-life ([1]; human, in vivo, Day 28): 39 min
AUC(0-t) ([1]; human, in vivo, Day 28): 1600 ng·h/mL
AUC(0-inf) ([1]; human, in vivo, Day 0): 1550 ng·h/mL
AUC(0-inf) ([1]; human, in vivo, Day 28): 1600 ng·h/mL
Cmax ([1]; human, in vivo, Day 0, plasma, oral SOF 400 mg + DCV 60 mg, read-out: Cmax): 1320 ng/mL
Cmax ([1]; human, in vivo, Day 28, plasma, read-out: Cmax): 1070 ng/mL
AUC(0-t) ([2]; in vivo, 4-week cures (n=15), read-out: Median AUClast): 2360 ng·h/mL
AUC(0-t) ([2]; in vivo, 4-week failures (n=8), read-out: Median AUClast): 2220 ng·h/mL
AUC(0-t) ([2]; in vivo, 8-week cures (n=14), read-out: Median AUClast): 2120 ng·h/mL
AUClast [2, 4]: 1,140 (598-2,150) h×ng/mL
dose proportionality of AUC [3]: near dose proportional
half-life ([3]; ref de Kanter et al., 2014): less than 1 hr
